This experiment concerns HIV. Description: MT4 assay: antiviral HIV activity (cell protection, cell titer glo readout at 96 hours). It is filed as cell-based. The conditions noted are these: Human immunodeficiency virus 1, MT4, 96 h, MT4 cells, cell titer glo readout at 96 hours, 10 point dose response; read-out: HIV MT4 Assay IC50. A digest of the protocol: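 MT-4 cells infected with HIV, with inhibition readout by CellTiter-Glo luminescence at 96 h relative to no-compound control. Cytotoxicity measured in parallel under the same conditions. IC50 from a 10-point, 3-4-fold dilution series spanning >1000-fold, fitted with a four-parameter logistic equation.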
For orientation: In ATP-based viability assays light output follows the ATP content of the culture.

This passage reports IC50 results from patent US20150191469A1, “COMPOUNDS AND METHODS FOR TREATING HIV” (priority 2012, published 2015).

SMILES strings stand for the structures.

For orientation: IC50 means the point on the concentration scale where inhibition reaches its midpoint.

As to `Cc1nc2c(cc(-c3nc(-c4ccc5c(cnn5C)c4)no3)n2C)c(-c2cc(F)c3c(c2C)CCCO3)c1[C@H](OC(C)(C)C)C(=O)O` (atropisomer, axis not shown; (M)) [Example 354, (2S)(M)-2-(tert-butoxy)-2-(4-(8-fluoro-5-methylchroman-6-yl)-1,6-dimethyl-2-(3-(1-methyl-1H-indazol-5-yl)-1,2,4-oxadiazol-5-yl)-1H-pyrrolo[2,3-b]pyridin-5-yl)acetic acid], the IC50 was found to be 5 nM.
Turning to `Cc1nc2c(cc(-c3ccnc(-c4ccncc4)c3)n2C)c(-c2cc(F)c3c(c2C)CCCO3)c1[C@H](OC(C)(C)C)C(=O)O` (atropisomer, axis not shown) [Example 46], the IC50 stood at 7.8 nM.
As to `Cc1nc2c(cc(C(=O)N3CCN(C)CC3)n2C)c(-c2cc(F)c3c(c2C)CCCO3)c1[C@H](OC(C)(C)C)C(=O)O` [Example 173], the IC50 was found to be 354 nM.
The value for `Cc1nc2c(cc(C(=O)NCCC(F)(F)F)n2C)c(-c2cc(F)c3c(c2C)CCCO3)c1[C@H](OC(C)(C)C)C(=O)O` [Example 245] was 22.5 nM; that for `CCCn1cc(-c2cc3c(-c4cc(F)c5c(c4C)CCCO5)c([C@H](OC(C)(C)C)C(=O)O)c(C)nc3n2C)cn1` (atropisomer, axis not shown) [Example 132] was 32.9 nM; that for `Cc1nc2c(cc(-c3ccnc(N4CCCN(S(=O)(=O)C5CC5)CC4)c3)n2C)c(-c2cc(F)c3c(c2C)CCCO3)c1[C@H](OC(C)(C)C)C(=O)O` (atropisomer, axis not shown) [Example 114] was 25 nM.
Regarding `Cc1nc2c(cc(-c3nnc(N4CCN(C5CCOCC5)CC4)o3)n2C)c(-c2cc(F)c3c(c2C)CCCO3)c1[C@H](OC(C)C)C(=O)O` [Example 441], the IC50 amounted to 160 nM.
The value for `Cc1nc2c(cc(-c3ccnc(-c4ccc5c(c4)OCCO5)c3)n2C)c(-c2cc(F)c3c(c2C)CCCO3)c1[C@H](OC(C)(C)C)C(=O)O` [Example 78] was 5.8 nM.
With `Cc1nc2c(cc(-c3ccnc(C4=CCN(C)CC4)c3)n2C)c(-c2cc(F)c3c(c2C)CCCO3)c1[C@H](OC(C)(C)C)C(=O)O` (atropisomer, axis not shown) [Example 38], the IC50 is 17.9 nM.
The value for `Cc1nc2c(cc(-c3nc(N4CCN(C)CC4)ns3)n2C)c(-c2cc(F)c3c(c2C)CCCO3)c1[C@H](OC(C)(C)C)C(=O)O` [Example 369] was 11.3 nM; that for `Cc1nc2c(cc(-c3nnc(N4CCC(C)CC4)o3)n2C)c(-c2cc(F)c3c(c2C)CCCO3)c1[C@H](OC(C)(C)C)C(=O)O` [Example 301] was 3.9 nM; that for `Cc1nc2c(cc(-c3nc(N4C[C@@H](C)N[C@@H](C)C4)ns3)n2C)c(-c2cc(F)c3c(c2C)CCCO3)c1[C@H](OC(C)(C)C)C(=O)O` (racemic) [Example 397] was 13.1 nM.
The value for `Cc1nc2c(cc(-c3nnc(N4CCC[C@@H]4C)o3)n2C)c(-c2cc(F)c3c(c2C)CCCO3)c1[C@H](OC(C)(C)C)C(=O)O` [Example 324] was 4 nM; that for `Cc1nc2c(cc(-c3ccnc(N4CCCN(C5COC5)CC4)c3)n2C)c(-c2ccc3c(c2C)NCCO3)c1[C@H](OC(C)(C)C)C(=O)O` [Example 434] was 51.6 nM; that for `Cc1nc2c(cc(C(=O)N3CCC(NC(=O)c4cncn4C)CC3)n2C)c(-c2cc(F)c3c(c2C)CCCO3)c1[C@H](OC(C)(C)C)C(=O)O` [Example 165] was 50000 nM.
The result for `CC1=CCN(c2cc(-c3cc4c(-c5cc(F)c6c(c5C)CCCO6)c([C@H](OC(C)(C)C)C(=O)O)c(C)nc4n3C)ccn2)CC1` (atropisomer, axis not shown) [Example 100] reads 14.2 nM.
In the case of `Cc1nc2c(cc(-c3ccnc(-c4ccn5cc(C(F)(F)F)nc5c4)c3)n2C)c(-c2cc(F)c3c(c2C)CCCO3)c1[C@H](OC(C)(C)C)C(=O)O` (atropisomer, axis not shown) [Example 67], the IC50 turned out to be 45 nM.
The value for `Cc1nc2c(cc(C(=O)NCC3COC3)n2C)c(-c2cc(F)c3c(c2C)CCCO3)c1[C@H](OC(C)(C)C)C(=O)O` [Example 264] was 454 nM; that for `Cc1nc2c(cc(C(=O)N3CCC[C@H]3C(=O)N(C)c3ccc4c(cnn4C)c3)n2C)c(-c2cc(F)c3c(c2C)CCCO3)c1[C@H](OC(C)(C)C)C(=O)O` [Example 179] was 847 nM.
`Cc1nc2c(cc(C(=O)N3CCN4CCCC4C3)n2C)c(-c2cc(F)c3c(c2C)CCCO3)c1[C@H](OC(C)(C)C)C(=O)O` (stereo partly shown) [Example 182]: the 50% inhibitory concentration (IC50) amounted to 131 nM.
The value for `Cc1nc2c(cc(-c3nnc(N4C[C@@H](C)O[C@@H](C)C4)o3)n2C)c(-c2cc(F)c3c(c2C)CCCO3)c1[C@H](OC(C)(C)C)C(=O)O` (racemic) [Example 338] was 1.6 nM; that for `Cc1nc2c(cc(-c3ccnc(N4CCN(C5CCOCC5)CC4)n3)n2C)c(-c2cc(F)c3c(c2C)CCCO3)c1[C@H](OC(C)(C)C)C(=O)O` [Example 363] was 9.9 nM.
Regarding `Cc1nc2c(cc(-c3nccc(N4CCN(C5CCOCC5)CC4)n3)n2C)c(-c2cc(F)c3c(c2C)CCCO3)c1[C@H](OC(C)(C)C)C(=O)O` (atropisomer, axis not shown; (M)) [Example 358], the IC50 was determined as 17.6 nM.
Consider `Cc1nc2c(cc(-c3ccnc(N4CCN(c5nccs5)CC4)c3)n2C)c(-c2cc(F)c3c(c2C)CCCO3)c1[C@H](OC(C)(C)C)C(=O)O` (atropisomer, axis not shown) [Example 84], for which the IC50 came out at 14.7 nM.
As for `Cc1nc2c(cc(C(=O)N3CCN(c4nccs4)CC3)n2C)c(-c2cc(F)c3c(c2C)CCCO3)c1[C@H](OC(C)(C)C)C(=O)O` [Example 208], the IC50 was 39.6 nM.
As to `Cc1nc2c(cc(-c3nnc(N4CCC4)o3)n2C)c(-c2cc(F)c3c(c2C)CCCO3)c1[C@H](OC(C)(C)C)C(=O)O` [Example 325], the IC50 amounted to 13.6 nM.
With `Cc1nc2c(cc(-c3cc(N4CCN(C5CCOCC5)CC4)ncn3)n2C)c(-c2cc(F)c3c(c2C)CCCO3)c1[C@H](OC(C)(C)C)C(=O)O` [Example 359], the IC50 was determined as 4.1 nM.
As to `Cc1nc2c(cc(-c3ccnc(N4CCN(C5CCCC5)CC4)c3)n2C)c(-c2cc(F)c3c(c2C)CCCO3)c1[C@H](OC(C)(C)C)C(=O)O` (atropisomer, axis not shown) [Example 91], the IC50 came out at 12.2 nM.
The value for `Cc1nc2c(cc(-c3cccc(-c4ccc5c(cnn5C)c4)n3)n2C)c(-c2cc(F)c3c(c2C)CCCO3)c1[C@H](OC(C)(C)C)C(=O)O` [Example 71] was 23.4 nM.
As to `Cc1nc2c(cc(C(=O)NCCOc3ccccc3)n2C)c(-c2cc(F)c3c(c2C)CCCO3)c1[C@H](OC(C)(C)C)C(=O)O` [Example 213], the IC50 was found to be 3.9 nM.
The result for `Cc1nc2c(cc(C(=O)N3CCN(c4ncccn4)CC3)n2C)c(-c2cc(F)c3c(c2C)CCCO3)c1[C@H](OC(C)(C)C)C(=O)O` [Example 199] reads 27.6 nM; that for `Cc1nc2c(cc(-c3nnc(N4CCN(S(=O)(=O)N5CCCCC5)CC4)o3)n2C)c(-c2cc(F)c3c(c2C)CCCO3)c1[C@H](OC(C)(C)C)C(=O)O` [Example 319], 4.9 nM; that for `Cc1nc2c(cc(-c3nnc(N4CCC(F)CC4)o3)n2C)c(-c2cc(F)c3c(c2C)CCCO3)c1[C@H](OC(C)(C)C)C(=O)O` [Example 346], 2.7 nM.
In the case of `Cc1nc2c(cc(-c3nc(NCCS(C)(=O)=O)ns3)n2C)c(-c2cc(F)c3c(c2C)CCCO3)c1[C@H](OC(C)(C)C)C(=O)O` [Example 406], the IC50 was found to be 39.2 nM.
